What is called solubility is the dissolved amount per volume that the medium holds.

Molecules are shown by their SMILES. In brackets after ≈: the same amount, converted by molar mass. Read-outs that look alike come from different tables or passages of the source.

This is an account of results in patent US4666892A, “Method and composition for hepatitis treatment with pyrimidine nucleoside compounds” (Sloan-Kettering Memorial Cancer Center, priority 1986, dated 1987).

Data set [1] concerns the target T1, HBV DNA polymerase (Hepatitis B virus genotype D subtype ayw, UniProt P03156).
T1 construct: HBV particles containing DNA polymerase activity were purified from the serum of an immunosuppressed patient; from tissue; host or cells: virus particles purified from the serum of an HBsAg-positive immunosuppressed patient
Briefly: HBV endogenous DNA polymerase assay, inhibition by nucleoside triphosphate analogs. Type of data set: biochemical, hepatitis B virion (HBV). The conditions noted are these: for ID50 relative to ID50 of FIACTP: times more than FIACTP; for Nature of inhibition (Lineweaver-Burk plots): versus dGTP (ACVTP), dCTP (FIACTP), dTTP (BVdUTP); for Relative efficiency as inhibitor of HBV DNA polymerase: excess of nucleotides (50 uM). From the text:
(§1) HBV particles containing DNA polymerase activity were purified from the serum of an immunosuppressed patient, positive for HBsAg. WHV was obtained from a serum pool of five woodchucks (Marmota monax) chronic carriers of the virus. The woodchucks initially imported from Pennsylvania (Dutchland Lab. Pennsylvania, USA) belonged to a colony followed for over one year by serological tests (Hantz et al, J. Virol. Metho. 7, 45-55 (1983)).
(§2) Virus was purified by centrifugation on sucrose and isopycnic CsCl gradients. (Hantz et al submitted for publication).
(§3) DNA polymerase was assayed as described by Kaplan et al (J. Virol., 12, 995 (1973)) with minor modification. The assay was performed in a 50 ul reaction mixture containing 50 mM Tris-HCl pH=7,6,40 mM MgC12, 60 mM NH4 Cl, 100 uM each dATP, dCTP and dGTP, 0.2-0.7 uM [^3 H] dTTP (30 Ci/mmol), 10 mM 2-mercaptoethanol, 0.5% Nonidet P 40 and enzyme. The reaction was started by addition of the virus particles with 2-mercaptoethanol and Nonidet P 40. Incubation was at 37° C. for 1 h. Acid insoluble radioactive material was collected on a glass fiber filter (GF/C Whatman) Filters were washed 5 times with cold 5% trichloracetic acid containing 10 mM sodium pyrophosphate, then with 95% ethanol. Radioactivity of the dried filter was measured in a liquid scintillation counter.
(§4) The relative sensitivities of both enzymes to CVTP, FIACTP and BVdUTP were compared using an excess of nucleotides. For each inhibitor, the concentration of the corresponding radioactive triphosphate was maintained at 2 to 3 times the Km value while the remaining nucleotides were in great excess (50 uM).
(§5) Although the mode of action for the various compounds is known to be different, the nature of ACVTP, FIACTP and BVdUTP inhibition of viral DNA synthesis catalyzed by HBV and WHV DNA polymerases was examined by determining the extent of inhibition with increasing concentrations of the substrates. In assays with ACVTP, [^3 H] dGTP was the rate limiting substrate while the other three nucleotides were in excess. The same conditions were used with [^3 H] dCTP for FIACTP and [^3 H] dTTP for BVdUTP inhibition. […] Similar results were obtained for WHV DNA polymerase.

The target in data set [2] is T2, WHV DNA polymerase (Woodchuck hepatitis B virus, UniProt P03160).
T2 construct: WHV was obtained from a serum pool of five woodchucks (Marmota monax) chronic carriers of the virus; from tissue; host or cells: virus particles purified from a serum pool of five chronically infected woodchucks (imported from Pennsylvania)
Briefly: WHV endogenous DNA polymerase assay, inhibition by nucleoside triphosphate analogs. The data set is classed as biochemical. The conditions noted are these: for ID50 relative to ID50 of FIACTP: times more than FIACTP; for Affinity of WHV DNA polymerase to the analog compared with HBV DNA polymerase: WHV versus HBV DNA polymerase.
Source text: as §1, §2, §3, §4, §5

Data set [3] deals with T1, HBV DNA polymerase. Briefly: Time course of viral DNA synthesis with the analog as alternate substrate. The data set is classed as biochemical, hepatitis B virion (HBV). The settings on record: for DNA synthesis when the natural triphosphate is substituted by the analog: ara-TTP for dTTP, ara-CTP for dCTP, ACVTP for dGTP; for Viral DNA syntheses with dTTP substituted by the analog: [3H] dATP labelled substrate. The method, then:
as §3
The [^32 p] DNA product by the endogenous DNA polymerase reaction was analysed by agarose gel electrophoresis as described by Summers et al (Proc. Natl. Acad. Sci. U.S.A. 72, 4597-4601 (1975)). The reaction was made in 15 ul of the standard DNA polymerase mixture with 1 uM of [^32 p] dCTP (500 Ci/mmol) as labelled nucleotide.
After 2 h incubation at 37° C., the reaction was terminated by the addition of 20 ul of 10 mM Tris, 10 mM EDTA, 0, 1 mg per ml of proteinase K, 0, 1% (wt/vol) sodium dodecyl sulfate, followed by further incubation for 60 mn at 37° C. 5 ul of 5% (wt/vol) sucrose, 1% bromophenol blue was added, the entire mixture was heated for […] at 65° C., immediately colded at 4° C. and then analyzed by electrophoresis on a horizontal slab gel of 1% agarose. After electrophoresis, the gel was dried and developed by autoradiography.
To determine the effect of the three analogs on viral DNA synthesis, a time course experiment was performed with HBV DNA polymerase. [^3 ] dATP was used as the labelled substrate. […] The substitution of dTTP by BVdUTP permitted the viral DNA syntheses up to 46 percent of the control after 3 h of reaction. This value increased to 67 percent of the optimal activity after 4 h of reaction. […] The DNA synthesized with BVdUTP as alternate substrate was analyzed by agarose gel electrophoresis.

For data set [4], the target named is T1, HBV DNA polymerase. The experiment in a line: Time course of HBV DNA synthesis, normal substrate added after 120 min with analog. The conditions noted are these: for HBV DNA synthesis after addition of the normal substrate at 120 min of reaction with the analog: ACVTP 5 uM then 100 um dGTP, ara-ATP then dATP, ara-CTP then dCTP. Type of data set: biochemical, hepatitis B virion (HBV). The procedure:
as §3
The effect of ACVTP on HBV DNA synthesis was also studied in a time course experiment ^3 H] dTTP was the labelled substrate. The reaction was initiated without dGTP or with 5 um ACVTP instead of dGTP. […] After 120 min of reaction, 100 uM of dGTP was added. In the assay without dGTP only, the addition of dGTP increased DNA synthesis as expected.

In the next data set the test system is HBV replication. The settings on record: patients with chronic hepatitis B; Weller et al 1982, 1983; cited from earlier work.
For data set [5], the target named is T2, WHV DNA polymerase. Briefly: Analog as alternate substrate of WHV DNA polymerase. The data set is classed as biochemical.
A further data set in a line: Solubility in water. The data set is classed as physicochemical. The source says:
These compounds are soluble in water and therefore water or water based solutions are preferred as solvents for treating patients. The solubilities are as follows:
The solubility of these compounds can be increased by adding acid or base to the aqueous solvent.

Where [6] appears, read: water, at 28°, read-out: Solubility.

T1 sequence (P03156 whole entry): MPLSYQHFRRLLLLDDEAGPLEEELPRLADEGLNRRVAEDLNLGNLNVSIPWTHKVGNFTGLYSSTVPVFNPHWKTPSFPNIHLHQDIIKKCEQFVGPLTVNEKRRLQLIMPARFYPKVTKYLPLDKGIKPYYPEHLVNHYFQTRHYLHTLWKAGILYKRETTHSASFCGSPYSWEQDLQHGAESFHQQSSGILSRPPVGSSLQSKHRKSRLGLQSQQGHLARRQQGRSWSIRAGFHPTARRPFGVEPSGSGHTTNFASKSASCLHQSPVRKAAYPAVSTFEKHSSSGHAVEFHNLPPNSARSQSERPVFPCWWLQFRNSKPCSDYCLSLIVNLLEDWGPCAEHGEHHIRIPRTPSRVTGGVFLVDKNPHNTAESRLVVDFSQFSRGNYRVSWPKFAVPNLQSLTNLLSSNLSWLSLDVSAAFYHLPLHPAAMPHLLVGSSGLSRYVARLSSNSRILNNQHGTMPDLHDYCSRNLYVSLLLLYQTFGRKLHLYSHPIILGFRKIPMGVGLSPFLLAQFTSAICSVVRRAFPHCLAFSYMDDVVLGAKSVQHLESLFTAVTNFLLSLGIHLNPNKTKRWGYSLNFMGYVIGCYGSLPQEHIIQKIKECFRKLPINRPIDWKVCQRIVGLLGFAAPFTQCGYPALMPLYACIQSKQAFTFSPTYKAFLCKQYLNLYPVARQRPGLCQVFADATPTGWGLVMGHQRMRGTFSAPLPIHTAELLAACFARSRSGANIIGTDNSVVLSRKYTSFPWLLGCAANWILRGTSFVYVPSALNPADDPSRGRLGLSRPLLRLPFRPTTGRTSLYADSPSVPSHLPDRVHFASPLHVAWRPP
T2 sequence (P03160 whole entry): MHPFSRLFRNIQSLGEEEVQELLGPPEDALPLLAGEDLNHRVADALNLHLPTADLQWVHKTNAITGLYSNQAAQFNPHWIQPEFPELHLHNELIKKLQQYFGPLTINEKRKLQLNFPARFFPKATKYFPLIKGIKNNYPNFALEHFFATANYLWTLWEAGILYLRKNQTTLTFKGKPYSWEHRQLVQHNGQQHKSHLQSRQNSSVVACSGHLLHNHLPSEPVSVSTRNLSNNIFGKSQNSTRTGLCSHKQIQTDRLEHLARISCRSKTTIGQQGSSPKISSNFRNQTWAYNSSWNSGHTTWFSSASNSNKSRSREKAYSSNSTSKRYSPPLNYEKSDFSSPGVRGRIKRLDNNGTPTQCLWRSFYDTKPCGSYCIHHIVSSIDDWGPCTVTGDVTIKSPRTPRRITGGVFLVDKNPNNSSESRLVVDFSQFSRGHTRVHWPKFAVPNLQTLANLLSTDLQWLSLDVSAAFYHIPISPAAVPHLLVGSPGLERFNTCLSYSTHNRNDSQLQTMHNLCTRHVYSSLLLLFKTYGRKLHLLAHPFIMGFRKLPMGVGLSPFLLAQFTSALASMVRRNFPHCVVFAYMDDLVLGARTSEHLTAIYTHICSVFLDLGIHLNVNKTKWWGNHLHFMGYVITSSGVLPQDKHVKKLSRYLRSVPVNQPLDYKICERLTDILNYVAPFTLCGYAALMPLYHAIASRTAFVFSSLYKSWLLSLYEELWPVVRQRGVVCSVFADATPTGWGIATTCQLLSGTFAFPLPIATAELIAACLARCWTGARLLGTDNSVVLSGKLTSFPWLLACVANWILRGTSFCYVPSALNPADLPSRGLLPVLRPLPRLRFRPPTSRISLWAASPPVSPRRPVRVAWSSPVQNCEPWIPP

Regarding `Nc1nc2c(ncn2COCCOP(=O)(O)OP(=O)(O)OP(=O)(O)O)c(=O)[nH]1` [ACVTP], on HBV DNA polymerase [1] (HBV DNA polymerase), the “ID50 relative to ID50 of FIACTP” value was 18 times and the “Nature of inhibition (Lineweaver-Burk plots)” value (shortened to “Nature of inhibition”) was “competitive”. Besides, the “ID50 relative to ID50 of FIACTP” value on WHV DNA polymerase [2] (WHV DNA polymerase) is recorded as 18 times. Besides, on WHV DNA polymerase [2], the “Affinity of WHV DNA polymerase to the analog compared with HBV DNA polymerase” value is reported as “lower affinity”. On HBV DNA polymerase [3], the “DNA synthesis when the natural triphosphate is substituted by the analog” value (from here on “DNA synthesis … by the analog”) is listed as “did not increase the polymerization process”. Besides, the “Incorporation of [3H] dTMP with analog instead of dGTP” value on HBV DNA polymerase [4] (5 um ACVTP instead of dGTP, first 120 min) is given as “no incorporation”. Moreover, the “HBV DNA synthesis when reaction is started with analog and dGTP together” value on HBV DNA polymerase [4] (ACVTP 5 uM and dGTP 100 uM from start) is given as “a significant DNA synthesis was observed”. In addition, the “HBV DNA synthesis after addition of the normal substrate at 120 min of reaction with the analog” value (“HBV DNA synthesis … with the analog” below) on HBV DNA polymerase [4] was “no DNA synthesis was observed”.
As for `Nc1nc2c(ncn2COCCO)c(=O)[nH]1` [ACV], the “In vivo inhibition of HBV replication” value with HBV replication is given as “inhibition of HBV replication”.
Turning to `O=c1[nH]c(=O)n([C@H]2C[C@H](O)[C@@H](COP(=O)(O)OP(=O)(O)OP(=O)(O)O)O2)cc1/C=C/Br` [BVdUTP], the “ID50 relative to ID50 of FIACTP” value on HBV DNA polymerase [1] (HBV DNA polymerase) and at WHV DNA polymerase [2] (WHV DNA polymerase) was 5 times each time. For the same compound, the “Nature of inhibition” value at HBV DNA polymerase [1] (HBV DNA polymerase) is given as “competitive”. The “Affinity of WHV DNA polymerase to the analog compared with HBV DNA polymerase” value at WHV DNA polymerase [2] is listed as “lower affinity”. Besides, the “DNA synthesized with analog as alternate substrate (agarose gel electrophoresis)” value on HBV DNA polymerase [3] (HBV DNA) and on WHV DNA polymerase [5] (WHV DNA) was “Only incomplete filling of the single stranded region” in each case. Further, the “Efficiency as alternate substrate” value on HBV DNA polymerase [3] (HBV DNA polymerase) and at WHV DNA polymerase [5] (WHV DNA polymerase) was “most efficient alternate substrate” each time. Moreover, the “Viral DNA syntheses with dTTP substituted by the analog” value was 46% of the control at HBV DNA polymerase [3] (after 3 h of reaction) and 67% of the optimal activity on HBV DNA polymerase [3] (after 4 h of reaction).
Regarding `Nc1nc(=O)n([C@@H]2O[C@H](CO)[C@@H](O)[C@@H]2F)cc1I` [FIAC, 2'-fluoro-2'-deoxy-arabinosyl-5-iodocytosine], the solubility was approximately 250 mg/mL in “Solubility in water” (water with 1 eq hcl, aqueous solvent with about one molar equivalent of hydrochloric acid, read-out: Solubility with added acid) and 7.2 mg/mL (≈ 19.4 mM) in “Solubility in water” (water, at 21°, read-out: Solubility).
On to `Nc1nc(=O)n([C@@H]2O[C@H](COP(=O)(O)OP(=O)(O)OP(=O)(O)O)[C@@H](O)[C@@H]2F)cc1I` [FIACTP], for which the IC50 on HBV DNA polymerase [1] (HBV DNA polymerase, radioactive triphosphate at 2 to 3 times Km, remaining nucleotides 50 uM, read-out: ID50 (concentration of triphosphate required to inhibit 50 percent of DNA polymerase)) worked out at 50 nM; at WHV DNA polymerase [2] (WHV DNA polymerase, radioactive triphosphate at 2 to 3 times Km, remaining nucleotides 50 uM, read-out: ID50 (concentration of triphosphate required to inhibit 50 percent of DNA polymerase)) it was 50 nM. The “Nature of inhibition” value at HBV DNA polymerase [1] (HBV DNA polymerase) is on record as “competitive”. In addition, on HBV DNA polymerase [1], the “Relative efficiency as inhibitor of HBV DNA polymerase” value was “most efficient inhibitor”. For the same compound, the “Affinity of WHV DNA polymerase to the analog compared with HBV DNA polymerase” value at WHV DNA polymerase [2] was “lower affinity”. For the same compound, the “Incorporation of [3H] dAMP with the analog instead of dCTP” value on HBV DNA polymerase [3] (after 3 h of reaction) is “about 10 % of the control”.
As for `O=c1[nH]c(=O)n([C@@H]2O[C@H](CO)[C@@H](O)[C@@H]2F)cc1I` [FIAU, 2'-fluoro-2'-deoxy-arabinosyl-5-iodouracil], the “Solubility with added base” value in “Solubility in water” (aqueous solvent with one equivalent of sodium hydroxide (sodium salt)) is listed as “increased many fold”. Moreover, in the data set “Solubility in water” (setting [6]), the solubility was 4 mg/mL (≈ 10.8 mM).
Turning to `Cc1cn([C@@H]2O[C@H](CO)[C@@H](O)[C@@H]2F)c(=O)[nH]c1=O` [FMAU, 2'-fluoro-2'-deoxy-arabinosyl-5-methyluracil], the solubility in “Solubility in water” (water, at 24°, read-out: Solubility) amounted to 66 mg/mL (≈ 254 mM); in “Solubility in water” (setting [6]), 81 mg/mL (≈ 311 mM).
With `Nc1ncnc2c1ncn2[C@@H]1O[C@H](COP(=O)(O)OP(=O)(O)OP(=O)(O)O)[C@@H](O)[C@@H]1O` [ara-ATP], the “HBV DNA synthesis … with the analog” value at HBV DNA polymerase [4] is “increased the HBV DNA synthesis”.
Consider `Nc1ccn([C@@H]2O[C@H](COP(=O)(O)OP(=O)(O)OP(=O)(O)O)[C@@H](O)[C@@H]2O)c(=O)n1` [ara-CTP], for which the “Relative efficiency as inhibitor of HBV DNA polymerase” value on HBV DNA polymerase [1] is “least efficient”. Further, at HBV DNA polymerase [3], the “DNA synthesis … by the analog” value is reported as “no significant incorporation”. Also, the “HBV DNA synthesis … with the analog” value on HBV DNA polymerase [4] is reported as “increased the HBV DNA synthesis”.
With `Cc1cn([C@@H]2O[C@H](COP(=O)(O)OP(=O)(O)OP(=O)(O)O)[C@@H](O)[C@@H]2O)c(=O)[nH]c1=O` [ara-TTP], the “DNA synthesis … by the analog” value on HBV DNA polymerase [3] is recorded as “no significant DNA synthesis”.
